How the values were obtained:
[1] = tested on: rat sodium dextran sulfate (DSS) induced ulcerative colitis model; experiment: rat sodium dextran sulfate (DSS) induced ulcerative colitis model; type: in vivo; details: DSS rats
Source text: As an ulcerative colitis model, trinitrobenzenesulfonic acid (TNB) is usually used, but as a drug effect evaluation system to accomplish the present invention, a rat sodium dextran sulfate (DSS) induced ulcerative colitis model was used. It has been well known that said model is considered as an experimental model similar to human ulcerative colitis from many viewpoints such as inhibision of weight gain, presence or absence of bloody stool, symptoms of e.g. anemia and formation of erosion at the large intestine, and no formation of lesion in the small intestine [FOLIA PHARMACOLOGICA JAPONICA vol. 105, p. 145-152(1995)]. A therapeutic effect of N-(2-ethylsulfonylamino-5-trifluoromethyl-3-pyridyl)cyclohexanecarboxamide sodium salt monohydrate (hereinafter referred to as compound 1) over the test system was examined.
The compound 1 was used as a drug formulation. The formulation composition (content per one vial) was as follows.
A 3% aqueous solution of sodium dextran sulfate (DSS: manufactured by Wako Pure Chemical Industries, Ltd.) was put in a drinking bottle, and rats [Crj: CD(SD), male, Charles River Japan, 7 weeks old when subjected to the test] were made to drink the solution freely for 11 days to cause colitis. After eleven days, rats which satisfied selection standards (among rats which discharged bloody stool continuously for at least two days including the selection day, ones having a weight loss at the selection day of less than 20 g as compared with the weight on the previous day and having a hemoglobin concentration of at least 12 g/dl) were selected, and divided into groups (ten rats/group) so that there would be no difference in the average weight among groups.
With respect to a non-treated group and groups treated with the compound 1, the 3% aqueous solution was changed to a 1% DSS aqueous solution at the day of division, and the rats were made to drink the solution freely for 14 days. Further, to the rats in the groups treated with the compound 1, the compound 1 was perorally administered once a day for 14 days from the day of division by means of a peroral sonde (dosage: 10 ml/kg). To the rats in the non-treated group and a normal group, distilled water for injection (manufactured by Otsuka Pharmaceutical Co., Ltd.) alone was perorally administered similarly. Here, the normal group rats were made to drink distilled water for injection freely instead of the DSS aqueous solution from initiation of the test to the day of anatomy.
A 10 mg/ml aqueous solution of the compound 1 was prepared by using distilled water for injection (manufactured by Otsuka Pharmaceutical Co., Ltd.) and administered to the rats in a desired dosage.
Immediately after collection of blood, the large intestine (colon and rectum) was excised, and its length was measured by means of a ruler in a sufficiently relaxed state.
Immediately after the measurement, a fixing liquid was injected into the intestine, and the intestine was temporarily fixed for at least 1 hour in such a state that the lumen was approximately uniformly expanded. Then, the intestinal canal was dissected along the mesenterium adhered portion, and the intestine was completely fixed in an expanded state in a 10% neutral buffering formalin aqueous solution for at least one week. The intestine was washed with running water for about 5 minutes, and further washed with purified water three times, and then immersed in a 3% aqueous acetic acid solution for about 5 minutes as a pretreatment. Then, the intestine was immersed in a 1% Alcian blue (manufactured by Nacalai Tesque) (dissolved in a 3% aqueous acetic acid solution) and dyed for about 20 minutes, and then washed with a 3% aqueous acetic acid solution from 4 to 5 times until elution of Alcian blue disappeared. […]

[2] = tested on: TNBS induced rat Crohn's disease model; experiment: Trinitrobenzene Sulfonic Acid (TNBS) induced rat Crohn's disease model; type: in vivo; details: TNBS rats
Procedure: The therapeutic effect of the compound 1 on TNBS induced rat Crohn's disease model was studied by the following method.
(1) SD male rats (12 weeks old) were anesthetized with Nembutal and their abdomen was opened up, a TNBS solution (TNBS 160 mg/ml ethanol) was administered in 1 ml/kg in the colon located 10 cm below the ileocecum, and their abdomen was closed to prepare models, which were divided into a non-treated group and a group treated with the compound 1, each group consisting of 6 rats. No such a treatment was carried out for normal group rats. After preparation of the models, a drug formulation of the compound 1 of Test Example 1 diluted with distilled water was perorally administered to rats of the group treated with the compound 1 once a day for 7 days in a dosage of 10 mg/kg/day as calculated as anhydride of the compound 1. After completion of administration period, visual change, small intestine weight and mucosal myeloperoxidase activity in small intestine (mucosal MPO activity) were observed or measured. The visual change was evaluated by digitizing and compiling various changes. The ratio of the small intestine weight to the body weight was also calculated from the small intestine weight and the body weight.

For `CCS(=O)(=O)Nc1ncc(C(F)(F)F)cc1NC(=O)C1CCCCC1.O.[Na]` [compound 1, N-(2-ethylsulfonylamino-5-trifluoromethyl-3-pyridyl)cyclohexanecarboxamide sodium salt monohydrate], the “Erosion suppression rate (large intestine erosion area vs non-treated group)” value ([1]; 1 mg/kg/day perorally once a day for 14 days) was 45%, the “Erosion suppression rate (large intestine erosion area vs non-treated group)” value ([1]; 10 mg/kg/day perorally once a day for 14 days) was 56% and the “Erosion suppression rate (large intestine erosion area vs non-treated group)” value ([1]; 100 mg/kg/day perorally once a day for 14 days) was 62%. For the same compound, the “Anemia as a result of melena due to the erosion” value ([1]; peroral 14 days) was “decreases anemia”, the “Histopathological study: inflammation at the submucosa in the erosion formed region” value ([1]; peroral 14 days) was “remarkable decrease of inflammation at the submucosa” and the “Histopathological study: mucosal tissue reconstruction” value ([1]; peroral 14 days) was “normal tissue reconstruction by regeneration of the mucosa took place”. The “Length of large intestine: intestine wall hyperplasia” value ([1]; peroral 14 days) was “decreases intestine wall hyperplasia”, the “Inflammatory reaction and tissue impairment in the small intestine” value ([2]; 10 mg/kg/day perorally for 7 days) was “the inflammatory reaction and tissue impairment in the small intestine were decreased” and the “Ratio of small intestine to body weight (Mean)” value ([2]; 10 mg/kg/day perorally once a day for 7 days, non-treated 0.0065, normal 0.0030) was 0.0042. The “Small intestine weight (Mean)” value ([2]; 10 mg/kg/day perorally once a day for 7 days, non-treated 2.18, normal 1.11) was 1.63, the “Visual score (Mean)” value ([2]; 10 mg/kg/day perorally once a day for 7 days, non-treated 7.8, normal 1.5) was 4.2 and the “Mucosal MPO activity (Mean)” value ([2]; 10 mg/kg/day perorally once a day for 7 days, non-treated 8.93, normal 0.48) was 0.89.

Reference: patent publication US6653333B2, “Remedies or preventives for digestive diseases containing diaminotrifluoromethylpyridine derivatives” (Ishihara Sangyo Kaisha, Ltd., priority 2000, dated 2003)
